Assay [1] deals with miR-10b. The assay can be described thus: Luciferase reporter assay of miR-10b inhibition, MCF7 cells. To be noted: Homo sapiens, MCF7, 48 h. The class given is cell-based. The text has this: (§1) To identify miR-10b inhibitors, a luciferase reporter system was designed with complementary oligonucleotides for miR-10b.This luciferase reporter would repress Renilla luciferase signal in the presence of a functional mature miR-10b. However, in the presence of a small molecule that can inhibit mature miR-10b expression or affect its downstream function, the luciferase expression is restored again.
(§2) The PsiCHECK™-2 luciferase reporter vector was acquired from Promega™, Complementary oligonucleotides for hsa-miR-10b were designed based on the mature miRNA sequence and obtained from Thermo Fisher Scientific. In the design of the microRNA target sequence, several base pairs were added to have two different restriction sites recognizable by the enzyme SgfI at one side, and PmeI on the other (present in the vector as well). In addition, the insert was designed with a restriction site for SacI enzyme in order to have an additional site to digest the vector when monitoring colonies for the presence/absence of the insert. The designed oligonucleotides were annealed as follows: Complementary strands were mixed at a 1:1 molar ratio in a micro centrifuge tube. The mixture was diluted to a final concentration of 1 pmol/μl with a buffer solution of 10 mM Tris, 1 mM EDTA, and 50 mM NaCl (pH 8.0). Mixes were incubated at 95° C. for 5 min, and then the heat was reduced gradually for 70 min, until reaching 4° C. The annealed oligonucleotides were digested along with the PsiCHECK™2 vector with SgfI and PmeI and ligated at the 3′-UTR (downstream) of the Renilla luciferase reporter gene in the PsiCHECK™-2vector. Insert sequences were further confirmed in two ways: enzymatic digestion and sequencing.
(§3) MCF7 cells were seeded 24 h prior to transfection in 96 well plates (2.0×10^4 cells/well). For testing the sensitivity of the assay, antagomiRs and pre-miRs against miR-10b were used at a final concentration of 100 nM. For testing small molecule miRNA inhibitors, the compounds of interest were added to a final concentration of 10 μM. The assay was done in MCF7 or MDA-MB-231 cells at approximately 60% confluence using Lipofectamine in Opti-Mem media with the final vector concentration of 250 ng/mL. All transfections were performed in triplicate for statistical analysis. The cells were incubated at 37° C. for 6 h, followed by replacement of the transfected media with fresh media. After 48 h incubation, the media was removed, and cells were lysed and assayed with a Dual Luciferase Assay Kit (Promega) using a Vi-Tech luminometer. The ratio of Renilla to firefly luciferase expression was calculated for each of the triplicates.
In general terms: A reporter such as luciferase makes a cellular process visible.

The subject of a further assay is mature miR-10b. The assay can be described thus: RT-qPCR of mature miR-10b. It is filed as cell-based, human. To be noted: normalized to U6, vs DMSO. Here is the method: (§4) Potential small molecule miRNA inhibitors were tested in MCF7 cells, a metastatic cell line (MM231) and an HCC cell line (HepG2) through RT-qPCR. Cells were seeded in 12-well plates 24 h before treatments at a confluence of 50-60%. They were treated at a concentration of 10 μM linifanib (positive control) or DMSO (negative control), and RNA was collected after 24 and 48 h. MicroRNA expression was tested using TaqMan microRNA assay (Applied Biosystems). The cDNA was synthesized using TaqMan Reverse Transcription Reagents kit (Applied Biosystems) and employed for quantitative RT-qPCR analysis together with TaqMan probes and SsoFastSupermix (Bio-rad). Primers and probes were purchased for hsa-miR-10b, hsa-pri-miR-10b, U6, and U48 snRNA that was used as an internal control.
(§5) To detect the levels of the precursor sequences, cDNA was synthesized using the SuperScript III cDNA kit (Invitrogen). Diluted cDNA was used for RT-qPCR analysis using iQ SYBR Green Supermix (Bio-Rad) with primers designed by in-house. Experiments were performed in triplicate; treated samples were compared to the DMSO-treated controls and normalized to the internal control. Relative expression levels were calculated using the 2-ΔCt method.

Assay [2] has as its system AGS cell line. The assay can be described thus: Migration assay, AGS. It is filed as cell-based, human. To be noted: vs DMSO.
The subject of assay [3] is miR-10b. Kind of assay: Luciferase reporter assay of miR-10b inhibition, MDA-MB-231 cells. It is filed as cell-based. The conditions noted are these: Homo sapiens, MDA-MB-231, 48 h.
From the text: as §1, §2, §3

Another assay deals with pre-miR-10b. Kind of assay: RT-qPCR of precursor miR-10b. The class given is cell-based, human. To be noted: normalized to U6, vs DMSO. The protocol:
as §4, §5
A general note: Quantitative PCR measures a nucleic acid by following its amplification.

The subject of assay [4] is AGS cell line. Kind of assay: Cell proliferation assay (WST-8 or MTS), AGS. The class given is cell-based, human. Here is the method: (§6) IC50 dose-response curves were determined using the cell proliferation assay system. Briefly, 5,000 or 10,000 cells of each cell line were plated in 96-well microculture plates in replicates of either 4 or 6. When cells became adherent, either 5 or 10 sequentially decreasing doses of the small molecule miRNA inhibitor were diluted into new media and added to individual wells. After either 24 or 48 hours, of a tetrazolium salt such as MTS, MTT, or WST-8 was added to each well at the same time of day as treatment and incubated for either 2 or 3 h at 37° C. The OD, measuring at the appropriate wavelength for the dye, was read at on a microplate spectrophotometer.
(§7) Cell proliferation is determined using a colorimetric assay. A tetrazolium salt such as MTS, MTT, or WST-8 is reduced by dehydrogenase activities in cells to give a formazan dye, which is soluble in the tissue culture media. The amount of the formazan dye (generated by the activities of dehydrogenases in cells, and directly proportional to the number of living cells) is measured after 3 h of incubation. The OD is read at 450 nm on a microplate spectrophotometer and growth values (%) are calculated as (OD treated cells/OD untreated cells)×100. The experiments are performed in triplicate. Cell viability is also tested by bromodeoxyuridine (BrdU) test according to the instructions. 2000 MM231, MCF7 and HepG2 cells are seeded to 96-well plate. After 24 h, 10 μM DMSO or linifanib is added to each well. The OD is read at 450/550 nm on a microplate spectrophotometer, after one to seven days of the treatment. The experiments are performed in triplicate.
A general note: Tetrazolium dyes change colour on reduction, which living cells bring about.

A further assay has as its system AsPC1 cell line. The assay can be described thus: Cell proliferation assay (WST-8 or MTS), AsPC1. The class given is cell-based, human. Here is the method:
as §6
as §7, with “triplicate. […]” for “triplicate. Cell viability is also tested by bromodeoxyuridine (BrdU) test according to the instructions. 2000 MM231, MCF7 and HepG2 cells are seeded to 96-well plate. After 24 h, 10 μM DMSO or linifanib is added to each well.”, “treatment. […]” for “treatment. The experiments are performed in triplicate.”

Where [5] appears, read: Table 6, MCF7, second biological replicant, 10 μM compound, mean of triplicate, read-out: n-fold increase in luciferase expression, Mean.
Setting [6] is: Table 6, MCF7, second biological replicant, 10 μM compound, replicate #1, read-out: n-fold increase in luciferase expression, #1.
The mark [7] stands for this setting: Table 6, MCF7, second biological replicant, 10 μM compound, replicate #2, read-out: n-fold increase in luciferase expression, #2.
Setting [8] is: Table 6, MCF7, second biological replicant, 10 μM compound, replicate #3, read-out: n-fold increase in luciferase expression, #3.
[9] abbreviates: Table 5, MDA-MB-231, 10 μM compound, vs negative control (DMSO), mean of triplicate, read-out: n-fold increase in luciferase expression, Mean.
[10] abbreviates: Table 5, MDA-MB-231, 10 μM compound, vs negative control (DMSO), replicate #1, read-out: n-fold increase in luciferase expression, #1.
[11] abbreviates: Table 5, MDA-MB-231, 10 μM compound, vs negative control (DMSO), replicate #2, read-out: n-fold increase in luciferase expression, #2.
The mark [12] stands for this setting: Table 5, MDA-MB-231, 10 μM compound, vs negative control (DMSO), replicate #3, read-out: n-fold increase in luciferase expression, #3.
Where [13] appears, read: Table 7, MDA-MB-231, second biological replicant, 10 μM compound, mean of triplicate, read-out: n-fold increase in luciferase expression, Mean.
Where [14] appears, read: Table 7, MDA-MB-231, second biological replicant, 10 μM compound, replicate #1, read-out: n-fold increase in luciferase expression, #1.
The mark [15] stands for this setting: Table 7, MDA-MB-231, second biological replicant, 10 μM compound, replicate #2, read-out: n-fold increase in luciferase expression, #2.
Where [16] appears, read: Table 7, MDA-MB-231, second biological replicant, 10 μM compound, replicate #3, read-out: n-fold increase in luciferase expression, #3.
Where [17] appears, read: 5 and 10 μM, beginning at 48 h of treatment.

Molecules are shown by their SMILES.

As to `Cc1ccc(F)c(NC(=O)Nc2ccc(-c3cccc4cn[nH]c34)cc2)c1` [Example 4, 1-(4-(1H-indazol-7-yl)phenyl)-3-(2-fluoro-5-methylphenyl)urea], the fold induction at 10 µM in the assay on miR-10b [1] (Table 4, MCF7, 10 μM compound, vs negative control (DMSO), mean of triplicate, read-out: n-fold increase in luciferase expression, Mean) is 2.71; with miR-10b [1] (Table 4, MCF7, 10 μM compound, vs negative control (DMSO), replicate #1, read-out: n-fold increase in luciferase expression, #1), 1.95; in the assay on miR-10b [1] (Table 4, MCF7, 10 μM compound, vs negative control (DMSO), replicate #2, read-out: n-fold increase in luciferase expression, #2) it was 3.8; in the assay on miR-10b [1] (Table 4, MCF7, 10 μM compound, vs negative control (DMSO), replicate #3, read-out: n-fold increase in luciferase expression, #3), 2.39; in the assay on miR-10b [1] (setting [5]) it was 2.54; in the assay on miR-10b [1] (setting [6]) it was 4.28. For the same molecule, the fold induction at 10 µM turned out to be 2.09 in the assay with miR-10b [1] (setting [7]); 1.24 in the assay with miR-10b [1] (setting [8]); 1.43 in the assay on miR-10b [3] (setting [9]); 1.36 in the assay on miR-10b [3] (setting [10]); 1.7 with miR-10b [3] (setting [11]); 1.24 with miR-10b [3] (setting [12]). The fold induction at 10 µM in the assay on miR-10b [3] (setting [13]) came out at 1.55; in the assay on miR-10b [3] (setting [14]) it was 1.81; in the assay on miR-10b [3] (setting [15]), 1.8; in the assay with miR-10b [3] (setting [16]) it was 1.05. The “level of mature miR-10b” value in the assay with mature miR-10b (AGS gastric cell line) and in the assay on mature miR-10b (AsPC1 pancreatic cell line) was “reduces the level of mature miR-10b” in each case. The migration result in the assay on AGS cell line [2] is on record as “decreased migration”. Also, the “expression of pre-miR-10b” value with pre-miR-10b (AGS gastric cell line) and with pre-miR-10b (AsPC1 pancreatic cell line) was “increasing precursor miRNA transcript” in each case. For the same molecule, in the assay on AGS cell line [4] (10 μM, vs DMSO), the “cell viability (proliferation ability)” value was “statistically significant effect”. In addition, the “proliferation (MTS), every 24 h over 96 h” value with AGS cell line [4] (setting [17]) and in the assay with AsPC1 cell line (setting [17]) was “significant difference in proliferation” each time.
As for `Cc1ccc(F)c(NC(=O)Nc2ccc(-c3cncnc3)cc2)c1` [Example 2, 1-(2-fluoro-5-methylphenyl)-3-(4-(pyrimidin-5-yl)phenyl)urea], the fold induction at 10 µM in the assay on miR-10b [1] (Table 3, MCF7, 10 μM compound, vs negative control (DMSO), mean of triplicate, read-out: n-fold increase in luciferase expression, Mean) was 2.19; in the assay with miR-10b [1] (Table 3, MCF7, 10 μM compound, vs negative control (DMSO), replicate #1, read-out: n-fold increase in luciferase expression, #1), 2.75; in the assay on miR-10b [1] (Table 3, MCF7, 10 μM compound, vs negative control (DMSO), replicate #2, read-out: n-fold increase in luciferase expression, #2), 1.78; with miR-10b [1] (Table 3, MCF7, 10 μM compound, vs negative control (DMSO), replicate #3, read-out: n-fold increase in luciferase expression, #3), 2.05; in the assay on miR-10b [1] (setting [5]), 2.44; in the assay with miR-10b [1] (setting [6]), 2.51. Further, the fold induction at 10 µM with miR-10b [1] (setting [7]) was found to be 2.84; with miR-10b [1] (setting [8]), 1.96; in the assay with miR-10b [3] (setting [9]) it was 1.58; with miR-10b [3] (setting [10]), 1.45; in the assay on miR-10b [3] (setting [11]) it was 1.9; in the assay with miR-10b [3] (setting [12]), 1.38. For the same molecule, the fold induction at 10 µM with miR-10b [3] (setting [13]) turned out to be 2.13; in the assay with miR-10b [3] (setting [14]) it was 2.38; with miR-10b [3] (setting [15]) it was 1.88; with miR-10b [3] (setting [16]) it was 2.15. In addition, the entries for the “level of mature miR-10b” value in the assay on mature miR-10b (AGS gastric cell line) and in the assay on mature miR-10b (AsPC1 pancreatic cell line) were “reduce the level of mature miR-10b” and “reduces the level of mature miR-10b”, respectively. In addition, in the assay with AGS cell line [2], the migration result was “decreased migration”. The “expression of pre-miR-10b” value with pre-miR-10b (AGS gastric cell line) and in the assay with pre-miR-10b (AsPC1 pancreatic cell line) was “increased expression of pre-miR-10b” each time. Moreover, the proliferation entry was “reduced proliferation” in the assay on AGS cell line [4] (10 μM, 5 μM and 2 μM, vs DMSO); “reduced proliferation” with AsPC1 cell line (10 μM, vs DMSO).

The record behind these values is patent publication US20230145868A1, “UREA INHIBITORS OF MICRO-RNA” (Board of Regents, The University of Texas System, priority 2020, published 2023).
